How the values were obtained:
irradiated skin of pigs = assay: Skin biopsy histology (hematoxylin and eosin): basal cell density and epidermal thickness; type: in vivo, Gottingen mini-pigs
Experimental: A 5 mm punch biopsy was performed under anesthesia to obtain a skin sample from the non-irradiated healthy skin and the irradiated skin area 3, 7, 21, and 35 days after irradiation. After collection, skin biopsy samples were pinned to a cork to maintain the 5 mm size. Biopsy samples of non-irradiated skin were obtained from each pig before irradiation. All biopsy samples were processed and embedded in paraffin wax after fixation in 10% buffered formalin, then cut into 4 μm thick coronal sections and deparaffinized. Next, the sections were stained with hematoxylin and eosin and examined by optical microscopy. The longest rete ridge on each slide was selected and measured from the bottom of the basal layer to the bottom of the stratum corneum, avoiding the areas in which the inclusion appeared to be oblique. The mean values were then calculated based on the measurements of each section on each slide. The cell density of the basal layers was determined by counting the cells in the basement membrane at a depth of at least 5 mm. The results were expressed as the number of cells per millimeter of basement membrane.
The data were expressed as the means±the standard error of the mean (SEM) values. Differences between groups were evaluated by one-way analysis of variance (ANOVA) followed by a Student-Newman-Keuls post hoc test for multiple comparisons. In all cases, a p<0.05 was considered significant.

cyclooxygenase-2 (COX-2) = assay: COX-2 immunohistochemistry of irradiated skin; type: in vivo, Gottingen mini-pigs; details: 7, 21 and 35 days after irradiation
Experimental: After incubation in normal horse serum for 60 min to prevent nonspecific binding, the skin sections were incubated with mouse anti-nuclear factor (NF)-κB (sc-109, 1:200; Santa Cruz Biotechnology, Santa Cruz, CA, USA) and mouse anti-COX-2 (18-7379, 1:200; Zymed, USA) in phosphate buffered saline-Tween (PBS-T overnight at 4° C. The sections were subsequently incubated with biotinylated horse anti-mouse IgG (VECTASTAIN Elite ABC Kit; Vector Laboratories, USA). The immunoreactivity was assessed using the avidin-biotin peroxidase complex (VECTASTAIN Elite ABC Kit; Vector Laboratories). The peroxidase reaction was developed using a diaminobenzidine substrate kit (DAB Substrate Kit SK-4100; Vector Laboratories). As a control, the primary antibodies were omitted from the immunohistochemical analysis of a few test sections in each experiment. The sections were then counterstained with hematoxylin before being mounted.

mouse tongues = assay: X-ray-induced oral mucositis in mice: oral mucositis score; type: in vivo, ICR mice
Experimental: In a second example for illustrating embodiments of the present invention, six-week-old ICR mice (30-40 g) obtained from Institute of Animal Breeding and Genetics, University of Gottingen, Germany were used. The animals were housed in a room maintained at 22±2° C. under a 12-h light-dark cycle with lights on at 7:00 a.m. Mice were fed a standard rodent diet and had free access to water. In addition, no antibiotic supplements were used. All animal experiments were performed in compliance to The German Animal Welfare Act. The mice (n=20 per group) were anesthetized (pentobarbital sodium, 50 mg/kg body weight, i.p.) and then irradiated. Mice had to be irradiated only at the tip of the tongue, so the rest of the body was shielded with a lead device (thickness, 0.5 mm). The tongue was fixed to the outer surface of the lead device using adhesive tape and irradiated with a single radiation dose of 20 Gy. Radiation was generated using a 150 kV potential (20 mA) X-ray source at a focal distance of 350 mm and beam-hardened by a 1.0-mm aluminum filtration system (MBR-1520R-3; Hitachi, Tokyo, Japan). The dose rate was 5.1 Gy/min. The 6OHM-6-HITC compound was dissolved in a small volume of 1 M NaOH solution. The pH was adjusted to 7 with 1 M HCL. The concentration was adjusted to 3 mg/mL or 15 mg/mL in 0.9% (physiologic) saline solution. The body weight was recorded and the tongues were observed daily after irradiation. 6OHM-6-HITC was injected via the intraperitoneal route 30 min before irradiation. The control group was irradiated but without administering the 6OHM-6-HITC compound.
The scoring of oral mucositis was based on a modification of the method of Sonis et al. To assess the severity of oral mucositis, mice were anesthetized with isoflurane every day. The oral mucositis score was: 0=normal; 1=partial hyperemia, erythema and swelling; 2=overall hyperemia, erythema and swelling; 3=epidermolysis, hyperemia and erythema; 4=extensive epidermolysis and bleeding; 5=bleeding and abscesses. Myeloperoxidase (MPO) activity is a marker for neutrophils in inflamed tissue. MPO activity was measured in mouse tongues using a modification of the method of Chen et al. After mice had been killed by cervical dislocation 12 days after irradiation, tongue samples (n=10 per group) were removed and stored at −70° C. until required for assay. […] MPO activity was measured using a Microplate Reader (NJ-2300; Biotec, Tokyo, Japan) at 450 nm. MPO activity was calculated by measuring the slope of absorbance calibrated using MPO standards (Wako Biochemicals) and expressed as MPO/g tongue. […] TBARS levels were measured using the Microplate Reader (Biotec) at 540 nm. TBARS levels were calculated by measuring the slope of absorbance calibrated using TBARS standards and expressed as TBARS/g tongue. […]

SMILES: COc1cc2c(CCCCN=C=S)c[nH]c2cc1O [6OHM-6-HITC]
- basal cell counts (density) in the epidermis (irradiated skin of pigs; 21 days after irradiation, p<0.01 vs. vehicle-treated irradiation group): significantly ameliorated
- thickness of the epidermis (irradiated skin of pigs; 35 days after irradiation, p<0.01 vs. vehicle-treated irradiation group): prevented this decrease
- basal cell counts (density) in the epidermis (irradiated skin of pigs; 35 days after irradiation, p<0.05 vs. vehicle-treated irradiation group): significantly ameliorated
- COX-2 expression in the irradiated skin vs. vehicle-treated skin (cyclooxygenase-2 (COX-2)): lower
- total oral mucositis score between day-0 and day-12 vs. control group (mouse tongues; 30 mg/kg i.p.): significantly lower
- total oral mucositis score between day-0 and day-12 vs. control group (mouse tongues; 300 mg/kg i.p.): significantly lower
- oral mucositis score vs. control group (mouse tongues; 300 mg/kg i.p., day-10): significantly lower
- oral mucositis score vs. control group (mouse tongues; 300 mg/kg i.p., day-12): significantly lower

— patent US12178800B2, “Sulforaphane-melatonin-like compound” (priority 2018, dated 2024)
